pIC50, pKi: −log10 of the molar value. Values belong to the molecule of their own block, whether it stands above or below them.
How the values were obtained:
[1] = biological target: T1, Matrix metalloproteinase-9 (Homo sapiens, UniProt P14780); test: Inhibition of MMP-9 (unknown origin) assessed as inhibition constant
[2] = biological target: T2, Neutrophil collagenase (Homo sapiens, UniProt P22894); test: Inhibition of MMP-8 (unknown origin) assessed as inhibition constant
[3] = biological target: T3, 72 kDa type IV collagenase (Homo sapiens, UniProt P08253); test: Inhibition of MMP-2 (unknown origin) assessed as inhibition constant
[4] = biological target: T2, Neutrophil collagenase; test: Inhibition of MMP-8 (unknown origin)
[5] = test system: Jurkat E6.1; test: Induction of apoptosis in human Jurkat E6.1 assessed as reduction in MMP-2 expression at 2 uM measured after 48 hrs by annexin V-FITC/propidium iodide staining based flow cytometry analysis relative to control; type: functional; parameters: scale not given: the % may be the effect or the level left
[6] = test system: Jurkat E6.1; test: Induction of apoptosis in human Jurkat E6.1 assessed as reduction in HDAC-8 expression at 2 uM measured after 48 hrs by annexin V-FITC/propidium iodide staining based flow cytometry analysis relative to control; type: functional; parameters: scale not given: the % may be the effect or the level left
[7] = biological target: T1, Matrix metalloproteinase-9; test: Inhibition of MMP-9 (unknown origin)
[8] = test system: Jurkat E6.1; test: Induction of apoptosis in human Jurkat E6.1 assessed as reduction in HDAC-8 expression at 5 uM measured after 48 hrs by annexin V-FITC/propidium iodide staining based flow cytometry analysis relative to control; type: functional; parameters: scale not given: the % may be the effect or the level left
[9] = test system: Jurkat E6.1; test: Induction of apoptosis in human Jurkat E6.1 assessed as reduction in MMP-2 expression at 5 uM measured after 48 hrs by annexin V-FITC/propidium iodide staining based flow cytometry analysis relative to control; type: functional; parameters: scale not given: the % may be the effect or the level left
[10] = biological target: T4, Interstitial collagenase (Homo sapiens, UniProt P03956); test: Inhibition of MMP-1 (unknown origin)
T4 sequence (P03956 whole entry): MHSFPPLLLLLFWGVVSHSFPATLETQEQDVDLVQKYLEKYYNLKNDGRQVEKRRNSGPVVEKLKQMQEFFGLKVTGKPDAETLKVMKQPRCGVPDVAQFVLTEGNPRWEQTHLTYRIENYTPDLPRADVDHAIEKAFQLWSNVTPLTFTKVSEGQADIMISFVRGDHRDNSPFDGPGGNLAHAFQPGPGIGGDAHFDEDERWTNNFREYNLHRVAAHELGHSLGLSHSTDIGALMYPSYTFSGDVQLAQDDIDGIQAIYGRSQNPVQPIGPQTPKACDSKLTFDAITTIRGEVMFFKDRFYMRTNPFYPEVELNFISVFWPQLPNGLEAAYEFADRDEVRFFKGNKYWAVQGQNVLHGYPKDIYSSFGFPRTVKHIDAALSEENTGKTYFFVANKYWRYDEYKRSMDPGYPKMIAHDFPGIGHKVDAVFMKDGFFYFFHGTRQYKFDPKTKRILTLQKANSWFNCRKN

[11] = test system: MOLT-4; test: Cytotoxicity against human MOLT-4 cells incubated for 48 hrs by MTT assay; type: functional, cell-based; settings: MOLT-4, 48 h
[12] = biological target: T3, 72 kDa type IV collagenase; test: Inhibition of MMP-2 (unknown origin)
[13] = test system: Jurkat E6.1; test: Cytotoxicity against human Jurkat E6.1 cells incubated for 48 hrs by MTT assay; type: functional, cell-based; settings: Jurkat E6.1, 48 h
[14] = test system: U-937; test: Cytotoxicity against human U-937 cells incubated for 48 hrs by MTT assay; type: functional, cell-based; settings: U-937, 48 h
[15] = biological target: Macrophage metalloelastase (Homo sapiens, UniProt P39900); test: Inhibition of MMP-12 (unknown origin)
[16] = biological target: T5, Histone deacetylase 8 (Homo sapiens, UniProt Q9BY41); test: Inhibition of HDAC-8 (unknown origin)
T5 sequence (Q9BY41 whole entry): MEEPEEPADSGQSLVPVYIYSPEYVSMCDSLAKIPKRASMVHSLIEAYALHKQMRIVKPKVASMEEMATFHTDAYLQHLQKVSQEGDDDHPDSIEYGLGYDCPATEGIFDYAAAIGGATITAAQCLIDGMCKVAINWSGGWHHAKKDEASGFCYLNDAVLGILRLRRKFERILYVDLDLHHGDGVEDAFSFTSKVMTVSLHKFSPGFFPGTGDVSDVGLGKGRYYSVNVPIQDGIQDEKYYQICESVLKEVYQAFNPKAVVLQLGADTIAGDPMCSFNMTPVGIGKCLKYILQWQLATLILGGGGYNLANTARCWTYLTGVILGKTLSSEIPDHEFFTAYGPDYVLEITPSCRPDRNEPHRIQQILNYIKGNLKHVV

[17] = biological target: Matrix metalloproteinase-14 (Homo sapiens, UniProt P50281); test: Inhibition of MMP-14 (unknown origin)
[18] = test system: Jurkat E6.1; test: Induction of apoptosis in human Jurkat E6.1 assessed as reduction in MMP-2 expression at 20 uM measured after 48 hrs by annexin V-FITC/propidium iodide staining based flow cytometry analysis relative to control; type: functional; parameters: scale not given: the % may be the effect or the level left
[19] = test system: Jurkat E6.1; test: Induction of apoptosis in human Jurkat E6.1 assessed as reduction in HDAC-8 expression at 20 uM measured after 48 hrs by annexin V-FITC/propidium iodide staining based flow cytometry analysis relative to control; type: functional; parameters: scale not given: the % may be the effect or the level left
[20] = test system: Jurkat E6.1; test: Induction of apoptosis in human Jurkat E6.1 assessed as reduction in MMP-2 expression at 10 uM measured after 48 hrs by annexin V-FITC/propidium iodide staining based flow cytometry analysis relative to control; type: functional; parameters: scale not given: the % may be the effect or the level left
[21] = test system: Jurkat E6.1; test: Induction of apoptosis in human Jurkat E6.1 assessed as reduction in HDAC-8 expression at 10 uM measured after 48 hrs by annexin V-FITC/propidium iodide staining based flow cytometry analysis relative to control; type: functional; parameters: scale not given: the % may be the effect or the level left
[22] = physchem; settings: water
Description: Solubility of the compound in water

[23] = biological target: Stromelysin-1 (Homo sapiens, UniProt P08254); test: Inhibition of human recombinant MMP-3 assessed as inhibition constant
[24] = biological target: T1, Matrix metalloproteinase-9; test: Binding affinity to human MMP-9 assessed as residence time
[25] = biological target: T6, Matrilysin (Homo sapiens, UniProt P09237); test: Inhibition of MMP-7 (unknown origin)
T6 sequence (P09237 whole entry): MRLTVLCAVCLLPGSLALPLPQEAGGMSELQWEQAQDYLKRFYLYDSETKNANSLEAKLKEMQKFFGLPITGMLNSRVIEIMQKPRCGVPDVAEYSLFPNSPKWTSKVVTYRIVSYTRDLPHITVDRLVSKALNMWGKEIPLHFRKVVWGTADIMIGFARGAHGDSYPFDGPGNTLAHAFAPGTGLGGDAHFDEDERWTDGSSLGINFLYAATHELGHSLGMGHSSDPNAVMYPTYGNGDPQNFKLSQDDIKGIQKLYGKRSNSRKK

[26] = biological target: T4, Interstitial collagenase; test: Inhibition of MMP-1 (unknown origin) assessed as inhibition constant

T1 sequence (P14780 whole entry): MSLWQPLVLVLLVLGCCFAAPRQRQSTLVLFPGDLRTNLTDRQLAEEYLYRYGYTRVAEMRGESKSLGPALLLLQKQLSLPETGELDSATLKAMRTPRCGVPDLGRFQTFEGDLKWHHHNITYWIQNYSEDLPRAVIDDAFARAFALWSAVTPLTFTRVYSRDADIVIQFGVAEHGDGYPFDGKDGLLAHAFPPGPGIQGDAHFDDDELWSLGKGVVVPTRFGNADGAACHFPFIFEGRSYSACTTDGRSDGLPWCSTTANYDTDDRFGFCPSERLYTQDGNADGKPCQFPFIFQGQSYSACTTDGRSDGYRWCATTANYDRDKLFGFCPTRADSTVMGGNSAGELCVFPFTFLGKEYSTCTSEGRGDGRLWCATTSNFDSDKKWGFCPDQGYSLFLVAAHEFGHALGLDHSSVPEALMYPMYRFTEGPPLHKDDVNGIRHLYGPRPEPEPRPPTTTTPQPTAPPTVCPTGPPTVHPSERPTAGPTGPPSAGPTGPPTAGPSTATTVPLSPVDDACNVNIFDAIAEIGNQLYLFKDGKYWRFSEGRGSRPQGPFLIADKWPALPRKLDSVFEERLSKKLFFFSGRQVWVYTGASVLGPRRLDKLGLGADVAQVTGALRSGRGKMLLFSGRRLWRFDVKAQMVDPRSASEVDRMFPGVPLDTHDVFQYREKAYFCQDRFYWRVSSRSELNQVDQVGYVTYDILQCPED
T3 sequence (P08253 whole entry): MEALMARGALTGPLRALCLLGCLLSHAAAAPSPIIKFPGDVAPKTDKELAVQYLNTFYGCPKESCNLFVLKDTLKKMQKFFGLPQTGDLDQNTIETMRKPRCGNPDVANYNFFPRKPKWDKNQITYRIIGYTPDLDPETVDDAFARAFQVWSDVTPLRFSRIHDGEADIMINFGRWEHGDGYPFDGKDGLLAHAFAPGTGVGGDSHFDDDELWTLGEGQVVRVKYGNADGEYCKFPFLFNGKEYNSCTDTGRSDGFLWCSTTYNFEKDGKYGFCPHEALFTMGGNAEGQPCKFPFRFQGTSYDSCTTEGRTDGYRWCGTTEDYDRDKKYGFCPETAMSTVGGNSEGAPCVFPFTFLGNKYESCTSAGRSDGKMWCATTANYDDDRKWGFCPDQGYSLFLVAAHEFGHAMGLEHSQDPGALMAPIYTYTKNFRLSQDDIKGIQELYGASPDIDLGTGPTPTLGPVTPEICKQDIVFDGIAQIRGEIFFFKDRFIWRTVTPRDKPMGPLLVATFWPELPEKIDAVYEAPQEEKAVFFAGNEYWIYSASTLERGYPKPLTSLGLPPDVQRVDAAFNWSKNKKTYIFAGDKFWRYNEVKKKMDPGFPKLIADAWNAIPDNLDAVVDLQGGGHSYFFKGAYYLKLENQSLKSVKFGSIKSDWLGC
T2 sequence (P22894 whole entry): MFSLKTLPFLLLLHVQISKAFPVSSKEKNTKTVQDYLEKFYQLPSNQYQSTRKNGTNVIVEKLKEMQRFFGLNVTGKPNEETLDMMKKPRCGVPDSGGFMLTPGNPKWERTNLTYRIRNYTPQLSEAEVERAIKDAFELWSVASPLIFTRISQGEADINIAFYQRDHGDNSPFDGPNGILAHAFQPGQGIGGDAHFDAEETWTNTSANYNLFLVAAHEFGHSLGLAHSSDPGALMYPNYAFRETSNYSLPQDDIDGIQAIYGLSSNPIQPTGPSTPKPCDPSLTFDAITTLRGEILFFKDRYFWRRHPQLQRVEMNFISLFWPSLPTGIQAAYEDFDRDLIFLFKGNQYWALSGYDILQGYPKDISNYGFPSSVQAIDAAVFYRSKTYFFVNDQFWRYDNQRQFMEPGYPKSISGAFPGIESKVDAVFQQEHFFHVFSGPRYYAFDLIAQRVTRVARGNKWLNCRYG
Chain of Macrophage metalloelastase (P39900 whole entry): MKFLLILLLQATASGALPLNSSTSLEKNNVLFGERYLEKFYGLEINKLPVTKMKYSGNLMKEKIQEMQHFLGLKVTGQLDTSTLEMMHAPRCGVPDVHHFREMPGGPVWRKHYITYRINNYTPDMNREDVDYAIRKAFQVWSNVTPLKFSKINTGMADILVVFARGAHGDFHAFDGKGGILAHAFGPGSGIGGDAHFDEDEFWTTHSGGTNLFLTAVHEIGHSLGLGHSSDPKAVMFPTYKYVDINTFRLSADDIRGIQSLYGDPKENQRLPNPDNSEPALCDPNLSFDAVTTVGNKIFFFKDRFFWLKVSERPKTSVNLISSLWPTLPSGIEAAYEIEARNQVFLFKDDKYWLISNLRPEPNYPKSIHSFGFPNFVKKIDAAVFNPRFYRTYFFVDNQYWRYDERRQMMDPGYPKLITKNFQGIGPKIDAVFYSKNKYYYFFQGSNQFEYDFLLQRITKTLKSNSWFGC
Chain of Stromelysin-1 (P08254 whole entry): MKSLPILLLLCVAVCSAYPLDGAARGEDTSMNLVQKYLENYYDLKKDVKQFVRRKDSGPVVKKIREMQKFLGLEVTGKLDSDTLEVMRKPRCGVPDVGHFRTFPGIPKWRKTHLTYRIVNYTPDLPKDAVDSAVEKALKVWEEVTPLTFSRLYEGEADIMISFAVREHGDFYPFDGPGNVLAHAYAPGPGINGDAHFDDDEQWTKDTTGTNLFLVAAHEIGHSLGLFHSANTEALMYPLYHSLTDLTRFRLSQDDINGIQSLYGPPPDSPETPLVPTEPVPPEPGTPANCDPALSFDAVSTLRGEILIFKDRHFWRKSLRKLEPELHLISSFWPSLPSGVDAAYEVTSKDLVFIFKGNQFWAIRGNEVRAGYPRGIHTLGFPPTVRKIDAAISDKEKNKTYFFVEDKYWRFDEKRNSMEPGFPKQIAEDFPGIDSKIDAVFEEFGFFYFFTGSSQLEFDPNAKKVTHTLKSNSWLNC

pKi [1]: 7.23 | pKi [2]: 8.36 | pKi [3]: 6.81
Structure (SMILES): CN1C(=O)N(C[C@H](C(=O)NO)[C@H](CC2CCCC2)C(=O)N2CCCCC2)C(=O)C1(C)C

pIC50 [4]: 3.69 | pIC50 [7]: 5.32 | pIC50 [10]: < 3.60 | pIC50 [12]: 5.19 | pIC50 [15]: 3.86 | pIC50 [16]: 5.54 | pIC50 [17]: 4.25
Structure (SMILES): O=C(O)CCC(NC(=O)Cc1ccc(Br)cc1)C(=O)NCc1ccc([N+](=O)[O-])cc1 (stereo not drawn)
Activity [5]: 46% | Activity [6]: 48% | Activity [8]: 68% | Activity [9]: 70% | pIC50 [11]: 5.34 | pIC50 [13]: 5.56 | pIC50 [14]: 4.98

Structure (SMILES): CC(C)NC(=O)C(CCC(=O)O)NC(=O)Cc1ccc(Cl)cc1 (stereo not drawn)
Activity [18]: 58% | Activity [19]: 58% | pIC50 [11]: 4.93 | Activity [20]: 42% | pIC50 [13]: 4.94 | pIC50 [14]: 4.53 | Activity [21]: 32%

Structure (SMILES): N=C(N)NCCC[C@H](N)C(=O)Nc1ccc(Oc2ccc(S(=O)(=O)CC3CS3)cc2)cc1 (stereo partly drawn)
solubility [22]: > 10000 µg/mL

pKi [23]: 7.37
Structure (SMILES): COc1ccc(S(=O)(=O)N(Cc2ccccc2)[C@@H](C(=O)NO)C(C)C)cc1

Structure (SMILES): O=S(=O)(CC1CS1)c1ccc(Oc2ccccc2)cc1 (stereo not drawn)
TIME [24]: 0.223 h

pIC50 [25]: 7.64 | pIC50 [7]: 7.57 | pIC50 [10]: 8.05 | pIC50 [12]: 7.41 | pIC50 [17]: 7.40
Structure (SMILES): CNC(=O)[C@@H](NC(=O)[C@H](CC(C)C)NC(=O)[C@@H](S)CCN1C(=O)N(C)C(C)(C)C1=O)C(C)(C)C [REBIMASTAT]

pKi [26]: < 5.30
Structure (SMILES): O=C(C[C@H](CSc1ccccc1)C(=O)O)c1ccc(-c2ccc(Cl)cc2)cc1 [TANOMASTAT]

Source: ChEMBL document CHEMBL5230143, “Inhibitors of gelatinases (MMP-2 and MMP-9) for the management of hematological malignancies” (Eur J Med Chem, 2021)
